Measured values as given in ChEMBL document CHEMBL5055665, “Discovery of the Triazolo[1,5-a]Pyrimidine-Based Derivative WS-898 as a Highly Efficacious and Orally Bioavailable ABCB1 Inhibitor Capable of Overcoming Multidrug Resistance” (J Med Chem, 2021).
Activity calls are given as the source filed them. The calls are words filed in the database; no cut-off is given here.

Tests used:
[1] = MRTinfinity in Sprague-Dawley rat at 10 mg/kg, iv measured up to 24 hrs by LC-MS/MS analysis; assay type: ADME, organism-based; conditions: in vivo
SW-620 [2] = assay: Reversal of resistance to paclitaxel-induced cytotoxicity in human SW-620/AD300 cells assessed as reduction in paclitaxel IC50 at 2 uM preincubated for 4 hrs followed by paclitaxel addition and measured after 72 hrs by MTT assay (reference value: 4.23 +/- 0.50 uM); assay type: functional, cell-based
[3] = AUCinfinity in Sprague-Dawley rat at 10 mg/kg, iv measured up to 24 hrs by LC-MS/MS analysis; assay type: ADME, organism-based; design: dose 10 mg/kg, time < 24 hrs, route iv; conditions: in vivo
KB 3-1 [4] = assay: Reversal of resistance to paclitaxel-induced cytotoxicity in human KB 3-1 cells assessed as reversal fold at 2 uM preincubated for 4 hrs followed by paclitaxel addition and measured after 72 hrs by MTT assay relative to paclitaxel; assay type: functional; conditions: time 76 hrs
[5] = Volume of distribution at steady state in Sprague-Dawley rat at 10 mg/kg, iv measured up to 24 hrs by LC-MS/MS analysis; assay type: ADME, organism-based; conditions: in vivo, read-out: Vdss
SW-620 [6] = assay: Reversal of resistance to paclitaxel-induced cytotoxicity in human SW-620 cells assessed as reversal fold at 2 uM preincubated for 4 hrs followed by paclitaxel addition and measured after 72 hrs by MTT assay relative to paclitaxel; assay type: functional; conditions: time 76 hrs
SW-620 [7] = assay: Reversal of resistance to paclitaxel-induced cytotoxicity in human SW-620 cells assessed as reduction in paclitaxel IC50 at 2 uM preincubated for 4 hrs followed by paclitaxel addition and measured after 72 hrs by MTT assay (reference value: 7.69 +/- 2.78 nM); assay type: functional, cell-based
HEK293 [8] = assay: Reversal of resistance to paclitaxel-induced cytotoxicity in human HEK293/ABCB1 cells assessed as reversal fold at 1 uM preincubated for 4 hrs followed by paclitaxel addition and measured after 72 hrs by MTT assay relative to paclitaxel; assay type: functional; conditions: time 76 hrs
KB 3-1 [9] = assay: Reversal of resistance to paclitaxel-induced cytotoxicity in human KB 3-1 cells assessed as reduction in paclitaxel IC50 at 2 uM preincubated for 4 hrs followed by paclitaxel addition and measured after 72 hrs by MTT assay (reference value: 4.54 +/- 1.59 nM); assay type: functional, cell-based
KB-C2 [10] = assay: Reversal of resistance to paclitaxel-induced cytotoxicity in human KB-C2 cells assessed as reduction in paclitaxel IC50 at 1 uM preincubated for 4 hrs followed by paclitaxel addition and measured after 72 hrs by MTT assay (reference value: 1886.37 +/- 243.05 nM); assay type: functional, cell-based
SW-620 [11] = assay: Antitumor activity against human SW-620/AD300 cells xenografted in BALB/c nude mouse assessed as tumor growth inhibition at 30 mg/kg/day, ig administered for 21 days in presence of paclitaxel; assay type: functional; design: scale not given: the % may be the effect or the level left; conditions: time 21 day
Mus musculus [12] = assay: Toxicity in BALB/c mouse xenografted with human SW-620/AD300 cells assessed as change in body weight at 30 mg/kg/day, ig administered 21 days; assay type: organism-based; conditions: in vivo, po, 504 h, time 21 day
SW-620 [13] = assay: Reversal of resistance to paclitaxel-induced cytotoxicity in human SW-620/AD300 cells assessed as reduction in paclitaxel IC50 at 1 uM preincubated for 4 hrs followed by paclitaxel addition and measured after 72 hrs by MTT assay (reference value: 4.23 +/- 0.50 uM); assay type: functional, cell-based
SW-620 [14] = assay: Reversal of resistance to paclitaxel-induced cytotoxicity in human SW-620 cells assessed as reversal fold at 1 uM preincubated for 4 hrs followed by paclitaxel addition and measured after 72 hrs by MTT assay relative to paclitaxel; assay type: functional; conditions: time 76 hrs
HEK293 [15] = assay: Reversal of resistance to paclitaxel-induced cytotoxicity in human HEK293/ABCB1 cells assessed as reduction in paclitaxel IC50 at 1 uM preincubated for 4 hrs followed by paclitaxel addition and measured after 72 hrs by MTT assay (reference value: 91.40 +/- 23.32 nM); assay type: functional, cell-based
SW-620 [16] = assay: Antitumor activity against human SW-620/AD300 cells xenografted in BALB/c nude mouse assessed as increase in cells with nuclear pyknosis at 30 mg/kg/day, ig administered for 21 days in presence of paclitaxel by TUNEL staining based fluorescence microscopy; assay type: functional, organism-based; conditions: time 21.0 day
[17] = molecular target: ATP-dependent translocase ABCB1 (Homo sapiens, UniProt P08183); assay: Binding affinity to ABCB1 in human SW-620/AD300 cells assessed as thermal stabilization of protein at 2 uM incubated for 76 hrs by CETSA-based Western blot analysis; assay type: cell-based; conditions: sw-620, 76 h
Sequence of ATP-dependent translocase ABCB1 (P08183 whole entry): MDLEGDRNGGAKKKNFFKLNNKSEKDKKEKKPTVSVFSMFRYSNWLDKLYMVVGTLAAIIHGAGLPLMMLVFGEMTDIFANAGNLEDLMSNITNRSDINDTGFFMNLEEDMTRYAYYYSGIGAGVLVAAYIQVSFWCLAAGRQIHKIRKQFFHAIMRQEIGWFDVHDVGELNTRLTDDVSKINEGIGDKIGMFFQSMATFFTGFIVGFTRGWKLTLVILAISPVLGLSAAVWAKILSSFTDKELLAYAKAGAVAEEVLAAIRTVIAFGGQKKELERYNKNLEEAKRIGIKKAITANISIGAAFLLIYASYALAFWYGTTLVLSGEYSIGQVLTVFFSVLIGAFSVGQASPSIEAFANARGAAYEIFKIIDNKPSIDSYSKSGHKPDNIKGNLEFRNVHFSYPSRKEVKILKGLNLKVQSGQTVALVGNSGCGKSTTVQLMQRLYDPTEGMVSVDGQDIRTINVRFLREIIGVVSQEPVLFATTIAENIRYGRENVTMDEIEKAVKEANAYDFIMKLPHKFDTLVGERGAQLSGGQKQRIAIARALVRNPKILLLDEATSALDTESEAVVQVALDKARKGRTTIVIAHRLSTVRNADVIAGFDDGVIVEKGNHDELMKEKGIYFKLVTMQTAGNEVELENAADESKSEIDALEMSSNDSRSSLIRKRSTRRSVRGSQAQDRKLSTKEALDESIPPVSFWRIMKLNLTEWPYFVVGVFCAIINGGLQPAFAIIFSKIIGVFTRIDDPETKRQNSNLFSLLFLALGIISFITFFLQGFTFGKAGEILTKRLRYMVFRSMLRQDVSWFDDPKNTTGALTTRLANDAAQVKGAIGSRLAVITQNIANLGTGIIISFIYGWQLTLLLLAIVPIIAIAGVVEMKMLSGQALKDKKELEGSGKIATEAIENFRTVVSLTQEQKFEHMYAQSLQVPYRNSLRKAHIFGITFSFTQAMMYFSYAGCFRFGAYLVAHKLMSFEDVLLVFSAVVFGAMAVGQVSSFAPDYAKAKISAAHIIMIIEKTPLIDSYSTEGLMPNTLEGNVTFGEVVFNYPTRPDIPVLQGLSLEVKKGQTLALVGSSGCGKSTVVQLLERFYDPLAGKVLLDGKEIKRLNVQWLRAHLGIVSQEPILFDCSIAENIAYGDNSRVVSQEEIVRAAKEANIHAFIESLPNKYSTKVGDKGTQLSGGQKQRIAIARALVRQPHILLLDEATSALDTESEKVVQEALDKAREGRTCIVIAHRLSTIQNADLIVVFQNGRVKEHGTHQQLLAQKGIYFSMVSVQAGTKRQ

SW-620 [18] = assay: Antitumor activity against human SW-620/AD300 cells xenografted in BALB/c nude mouse assessed as increase in cells with vacuoles at 30 mg/kg/day, ig administered for 21 days in presence of paclitaxel by TUNEL staining based fluorescence microscopy; assay type: functional, organism-based; conditions: time 21.0 day
SW-620 [19] = assay: Effect on subcellular localization of ABCB1 in human SW-620/AD300 cells at 2 uM measured after 72 hrs by Hoechst 33258 staining based immunofluorescence assay; assay type: functional, cell-based
Mus musculus [20] = assay: Toxicity in BALB/c mouse xenografted with human SW-620/AD300 cells assessed as mortality at 30 mg/kg/day, ig administered 21 days; assay type: organism-based; conditions: in vivo, po, 504 h, time 21 day
SW-620 [21] = assay: Reversal of resistance to paclitaxel-induced cytotoxicity in human SW-620/AD300 cells assessed as reversal fold at 2 uM preincubated for 4 hrs followed by paclitaxel addition and measured after 72 hrs by MTT assay relative to paclitaxel; assay type: functional; conditions: time 76 hrs
KB-C2 [22] = assay: Reversal of resistance to paclitaxel-induced cytotoxicity in human KB-C2 cells assessed as reduction in paclitaxel IC50 at 2 uM preincubated for 4 hrs followed by paclitaxel addition and measured after 72 hrs by MTT assay (reference value: 1886.37 +/- 243.05 nM); assay type: functional, cell-based
HEK293 [23] = assay: Reversal of resistance to paclitaxel-induced cytotoxicity in human HEK293/pcDNA3.1 cells assessed as reduction in paclitaxel IC50 at 2 uM preincubated for 4 hrs followed by paclitaxel addition and measured after 72 hrs by MTT assay (reference value: 1.93 +/- 0.06 nM); assay type: functional, cell-based
SW-620 [24] = assay: Reversal of resistance to paclitaxel-induced cytotoxicity in human SW-620 cells assessed as reduction in paclitaxel IC50 at 1 uM preincubated for 4 hrs followed by paclitaxel addition and measured after 72 hrs by MTT assay (reference value: 7.69 +/- 2.78 nM); assay type: functional, cell-based
Mus musculus [25] = assay: Toxicity in BALB/c mouse xenografted with human SW-620/AD300 cells assessed as change in body weight at 30 mg/kg/day, ig administered 21 days in presence of paclitaxel; assay type: organism-based; conditions: in vivo, po, 504 h, time 21 day
HEK293 [26] = assay: Reversal of resistance to paclitaxel-induced cytotoxicity in human HEK293/ABCB1 cells assessed as reversal fold at 2 uM preincubated for 4 hrs followed by paclitaxel addition and measured after 72 hrs by MTT assay relative to paclitaxel; assay type: functional; conditions: time 76 hrs
KB-C2 [27] = assay: Reversal of resistance to paclitaxel-induced cytotoxicity in human KB-C2 cells assessed as reversal fold at 2 uM preincubated for 4 hrs followed by paclitaxel addition and measured after 72 hrs by MTT assay relative to paclitaxel; assay type: functional; conditions: time 76 hrs
SW-620 [28] = assay: Antitumor activity against human SW-620/AD300 cells xenografted in BALB/c nude mouse assessed as tumor growth inhibition at 30 mg/kg/day, ig administered for 21 days; assay type: functional; design: scale not given: the % may be the effect or the level left; conditions: time 21 day
[29] = AUClast in Sprague-Dawley rat at 10 mg/kg, iv measured up to 24 hrs by LC-MS/MS analysis; assay type: ADME, organism-based; design: dose 10 mg/kg, time < 24 hrs, route iv; conditions: in vivo

`Cc1cc(Nc2ccc(C(=O)/C=C/c3ccc4ccccc4c3)cc2)n2nc(SCc3nc4ccccc4[nH]3)nc2n1` showed an MRT inf [1] of 6.42 min, an IC50 (SW-620 [2]) of 5 nM and an AUC(0-inf) [3] of 9450 ng·h/mL. For the same compound, the “fold change (FC)” value (KB 3-1 [4]) was 1.29, the Vd [5] was 0.114 L/kg and the “fold change (FC)” value (SW-620 [6]) was 1.1. The IC50 (SW-620 [7]) was 6.98 nM, the “fold change (FC)” value (HEK293 [8]) was 9.92 and the IC50 (KB 3-1 [9]) was 3.53 nM. The IC50 (KB-C2 [10]) was 15.9 nM, the Activity (SW-620 [11]) was 59% and the Activity (Mus musculus [12]) was “Non-Toxic”. The IC50 (SW-620 [13]) was 28.1 nM, the “fold change (FC)” value (SW-620 [14]) was 1.06 and the IC50 (HEK293 [15]) was 9.21 nM. For the same compound, the Activity (SW-620 [16]) was “Active”, the Activity [17] was “Active” and the Activity (SW-620 [18]) was “Active”. The Activity (SW-620 [19]) was “Active”, the Activity (Mus musculus [20]) was “Non-Toxic” and the “fold change (FC)” value (SW-620 [21]) was 846. For the same compound, the IC50 (KB-C2 [22]) was 3.67 nM, the IC50 (HEK293 [23]) was 1.31 nM and the IC50 (SW-620 [24]) was 7.19 nM. The Activity (Mus musculus [25]) was “Non-Toxic”, the “fold change (FC)” value (HEK293 [26]) was 24.84 and the “fold change (FC)” value (KB-C2 [27]) was 513.99. The Activity (SW-620 [28]) was 30% and the AUC(0-t) at 24 h [29] was 9440 ng·h/mL.
